{"source": "patent US10105377B2", "about": "“Compounds and nail polish” (Anacor Pharmaceuticals, Inc., priority 2014, dated 2018)", "key": {"[1]": {"test": "Tavaborole penetration of fingernails with one, two, or four layers of nail polish (vertical diffusion cells)", "type": "in vitro ADME, human", "conditions": "from Tavaborole Topical Solution, 5%; through up to four layers of nail polish", "source_text": "Female human ex vivo, cadaver fingernails from eight donors were cleaned of any underlying tissue, rinsed with water to remove any additional materials from the surface and then characterized for width, length, thickness, and weight. Four different treatment groups were used to evaluate different nail polish application practices. In the first treatment group, one nail from each of seven donors (randomized to treatment group) was painted according to the first nail polish application practice. In the second treatment group, a second nail from each of seven donors (randomized to treatment group) was painted according to the second nail polish application practice. In the third treatment group, a third nail from each of seven donors (randomized to treatment group) was painted according to the third nail polish application practice. In the fourth treatment group, a fourth nail from each of seven donors (randomized to treatment group) was painted according to the fourth nail polish application practice. […]\nVertical diffusion cells were filled with pre-warmed receiving medium of phosphate buffered saline (pH 7.4) and a small stir bar, and were allowed to equilibrate to 32±1.0° C. The cell volumes were determined prior to initiating the study. […] Prior to dosing, each cell was evaluated for leaks. […]"}, "[2]": {"conditions": "ex vivo human cadaver fingernails; relative to ciclopirox; cited from earlier work"}}, "data": [{"smiles": "OB1OCc2cc(F)ccc21", "note": "[tavaborole, 5-fluoro-1,3-dihydro-1-hydroxy-2,1-benzoxaborole]", "values": [{"measurement": "penetration through layers of nail polish (in words)", "setting": "[1]", "result": "able to penetrate"}, {"measurement": "quantity through the nail compared with ciclopirox", "setting": "[2]", "result": 250, "unit": "fold"}]}]}
